The values below come from ChEMBL document CHEMBL1127841, “Adenosine deaminase inhibitors: synthesis and structure-activity relationships of 2-hydroxy-3-nonyl derivatives of azoles” (J Med Chem, 1994).

pKi: −log10 of the molar value. Where only a bound is given, the exact number is not on record here.

For the test, the target named is T1, Adenosine deaminase (Bos taurus, UniProt P56658).
T1 sequence (P56658 whole entry): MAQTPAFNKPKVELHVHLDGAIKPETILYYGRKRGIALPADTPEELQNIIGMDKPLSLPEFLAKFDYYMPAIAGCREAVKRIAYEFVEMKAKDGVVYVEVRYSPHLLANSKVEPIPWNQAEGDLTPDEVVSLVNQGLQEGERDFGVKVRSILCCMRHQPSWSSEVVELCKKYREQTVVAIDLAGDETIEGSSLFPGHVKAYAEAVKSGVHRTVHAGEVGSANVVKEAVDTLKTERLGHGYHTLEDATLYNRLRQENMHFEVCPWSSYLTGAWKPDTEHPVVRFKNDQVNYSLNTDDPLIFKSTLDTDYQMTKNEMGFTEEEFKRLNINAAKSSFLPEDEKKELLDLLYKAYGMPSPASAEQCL
Description: In vitro inhibition of adenosine deaminase isolated from calf intestine.
Broadly, the pKi is −log10 of the Ki, conventionally taken in molar units. Lower therefore signals a large Ki. Compound `CCCCCCC(C(C)O)n1cnc2c(N)nccc21` (stereo not given) had a pKi of 6.80.

Consider `CCCCCCC(C(C)O)n1cnc2c(N)ccnc21` (stereo not given), for which the negative-log Ki (pKi) was 8.00.

`CCCCCCC(C(C)O)n1nccn1` (stereo not given): the pKi was under 3.40.

The compound `CCCCCCC(C(C)O)n1cnnc1` (stereo not given) showed a negative-log Ki (pKi) of 4.59.

As for `CCCCCCC(C(C)O)n1cccn1` (stereo not given), the negative logarithm of the Ki (pKi) is under 3.00.

With `CCCCCCC(C(C)O)n1ccnc1` (stereo in doubt; 6e), the pKi was 6.15.

Turning to `CCCCCCC(C(C)O)n1ccnc1` (stereo in doubt; 6t), the pKi was 5.74. Against the preceding compound, the pKi is 0.41 log units lower.

On to `CCCCCCC(C(C)O)n1ccnn1` (stereo in doubt; 13e), for which the negative logarithm of the Ki (pKi) was 4.62. This pKi lies 1.12 log units lower than the previous one.

As to `CCCCCCC(C(C)O)n1ccnn1` (stereo in doubt; 13t), the negative logarithm of the Ki (pKi) was 4.00.

On to `CCCCCCC(C(C)O)n1cncn1` (stereo in doubt; 18e), for which the pKi is 6.52.

As to `CCCCCCC(C(C)O)n1cncn1` (stereo in doubt; 18t), the pKi is 6.00.

On to `CCCCCCC(C(C)O)n1cnnn1` (stereo in doubt; 23e), for which the pKi is 6.22.

Regarding `CCCCCCC(C(C)O)n1cnnn1` (stereo in doubt; 23t), the pKi is 4.82.

In turn, `CCCCCCC(C(C)O)n1ncnn1` (stereo in doubt; 25e) gave a pKi of 5.02.

For `CCCCCCC(C(C)O)n1ncnn1` (stereo in doubt; 25t), the pKi is under 3.00.
